Bridge positions count the residues as written; N and C are the ends. Peptide text beside a SMILES is read from it.
T1: BTLA/HVEM complex (Homo sapiens, UniProt Q92956)
T1 construct: His; purchased ACROBiosystems (HVEM-His); Novoprotein (BTLA-Fc) #HVM-H52E9; #CD06
T1 sequence (Q92956 39-202 limits assumed): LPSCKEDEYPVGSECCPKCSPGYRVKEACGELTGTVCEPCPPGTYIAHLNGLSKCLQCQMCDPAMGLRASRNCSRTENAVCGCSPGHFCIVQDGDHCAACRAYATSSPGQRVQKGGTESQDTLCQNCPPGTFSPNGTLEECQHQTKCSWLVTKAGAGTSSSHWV

T2: BTLA/HVEM complex (Homo sapiens, UniProt Q92956)
T2 construct: expressed in transfected cells; host or cells: Jurkat JE6.1 NFκB-eGFP reporter cells (HVEM); T cell stimulator cells from mouse thymoma BW5147 (BTLA)
T2 sequence (Q92956 39-283): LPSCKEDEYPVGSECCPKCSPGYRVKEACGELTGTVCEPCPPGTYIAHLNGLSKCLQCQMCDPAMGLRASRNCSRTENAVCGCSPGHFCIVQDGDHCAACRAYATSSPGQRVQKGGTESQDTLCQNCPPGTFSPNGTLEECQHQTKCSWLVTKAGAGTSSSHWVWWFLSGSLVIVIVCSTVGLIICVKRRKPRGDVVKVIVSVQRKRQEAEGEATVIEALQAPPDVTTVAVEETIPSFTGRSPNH

T3: recombinant human HVEM with His tag (human, UniProt Q92956 39-202)
T3 construct: also called HVEM-His; herpesvirus entry mediator; source: bought: ACROBiosystems (#HVM-H52E9)
T3 sequence (looked up): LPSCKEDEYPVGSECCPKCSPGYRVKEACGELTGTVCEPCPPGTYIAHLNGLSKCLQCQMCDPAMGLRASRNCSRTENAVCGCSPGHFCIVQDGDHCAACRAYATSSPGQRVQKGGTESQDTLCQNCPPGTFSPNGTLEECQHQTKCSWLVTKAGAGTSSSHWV


How the values were obtained:
[1] = target: T1, BTLA/HVEM complex; assay: ELISA, inhibition of BTLA/HVEM complex formation; format: biochemical; conditions: peptides 1.5 to 0.375 mg/mL, 24 h, 37 °C; HVEM-His coated; BTLA-Fc 5 μg/mL
Protocol: ELISA tests were performed to check the inhibitory properties of the peptides. HVEM protein was first immobilized in microplates and then the peptides were added in three different concentrations and incubated with HVEM. Unbound peptides were then removed and BTLA-Fc protein was added. For the detection of BTLA-Fc protein, a goat anti-human IgG (H+L)-HRP conjugate and TMB (3,3’,5,5’-tetramethylbenzidine) were applied. As a positive control, anti-HVEM antibodies, which inhibit the BTLA/HVEM complex formation by about 50%, were used (Figure 3A and Figure S3). […] The inhibitory properties of the peptides were also studied for the complex HVEM/LIGHT, using the same procedure and conditions as described above, but with the application of LIGHT protein instead of BTLA protein. A significant increase in inhibitory properties was observed only for the anti-HVEM antibodies (positive control), which inhibited the HVEM/LIGHT binding by about 75% (Figure 3B and Figure S3). None of the tested peptides inhibited the formation of the LIGHT/HVEM complex (Figure 3B).
A 96-well Immunograde plate (Brand, Wertheim, Germany) was coated with 5 μg/mL of recombinant HVEM-His protein in PBS (100 μL/well) and incubated overnight at 4 °C. The plate was washed 5 times (200 μL/well) with PBS-T (5 mM Na2HPO4, 150 mM NaCl with the addition of 0.3 M NaCl and 0.05% Tween-20, pH 7.4) and blocked with 5% BSA in PBS-T for 2 h at 37 °C. The peptides were then titrated in triplicate from 1.5 to 0.375 mg/mL (100 µL/well) in PBS-T and incubated for 24 h at 37 °C. Maximum binding of HVEM to BTLA/LIGHT was determined by adding PBS-T to negative control wells, whereas maximum inhibition was measured by adding anti-HVEM (1 µg/well). The plate was then washed and incubated with recombinant BTLA-Fc/LIGHT-Fc protein at 5 μg/mL in PBS-T (100 μL/well) for 2 h at 37 °C. Goat anti-human IgG (H+L)-HRP conjugate (Bio-Rad, Hercules, CA, USA) antibody was then added (1:3000; 100 μL/well) and incubated for 1 h at 37 °C. Finally, BTLA-Fc/LIGHT-Fc was detected by the addition of 100 μL/well of TMB (Thermo Scientific, Waltham, MA, USA). Absorbance was measured using Infinite M200 Pro (Tecan Life Sciences, Männedorf, Switzerland) at 650 nm and 492 nm. […] ELISA tests were performed at least in triplicate. The data are presented as mean ± standard deviation (SD). The results were analyzed by one-way analysis of variance (ANOVA) followed by Dunnett’s post-hoc test using GraphPad Prism (San Diego, CA, USA).

[2] = target: T2, BTLA/HVEM complex; assay: Cell-based reporter assay (HVEM-expressing Jurkat NFκB-eGFP reporter cells stimulated with TCS-BTLA); conditions: 1.5 mg/mL; reporter cells pre-incubated 30 min with peptide, then TCS-BTLA 24 h; flow cytometry; three experiments in duplicate
Excerpt: To assess the capacities of the gD peptides to interfere with the BTLA/HVEM complex in a functional in vitro setting, reporter cells (NFκB-eGFP), which are based on the human Jurkat T cell line JE6.1 were transduced to express HVEM [34]. These reporter cells can be stimulated by T cell stimulator cells (TCS) expressing a membrane-bound anti-CD3 antibody fragment, which is able to engage the TCR-CD3 complex and thereby activate the NFκB pathway. In addition, to control TCS, TCS expressing the corresponding co-stimulatory ligand BTLA were generated in order to trigger HVEM in trans on the reporter cells (Figure S4). To validate the HVEM reporter system, control, and HVEM - expressing reporter cells were stimulated with control TCS and TCS expressing BTLA (Figure S4). Engagement of BTLA with HVEM induced high expression of NFκB-eGFP. To determine the inhibitory properties of the gD peptides, HVEM reporter cells were pre-incubated with the indicated peptides at different concentrations, followed by stimulation with control TCS or TCS-BTLA (Figure 4).
Figure 4 The inhibitory function of the peptides in a reporter cell-based assay. HVEM reporter cells were stimulated with TCS expressing BTLA in the absence or presence of the indicated gD peptides at concentrations of 1.5 mg/mL, 750 μg/mL, and 375 μg/mL. Reporter gene expression (NFκB-eGFP), upon stimulation with TCS-BTLA, was normalized to reporter activation after stimulation with TCS control in the presence of the respective peptides. BTLA/HVEM stimulation in the absence of peptides was set to 100% activation. Results are shown for three experiments performed independently in duplicate. Data are depicted as mean with SEM. * indicates statistically significant differences compared to full activation (100%), two-way ANOVA followed by Bonferroni’s post hoc test; p < 0.0001.
For functional assays, HVEM-expressing reporter cells (5 × 10^4 cells/well) were pre-incubated with different concentrations of gD peptides for 30 min in a 96 flat bottom plate. Control TCS or TCS expressing BTLA (2 × 10^4 cells/well) were subsequently added for 24 h at 37 °C with 5% CO2. After 24 h, the cells were harvested and stained with an mCD45.2 antibody to exclude TCS from the reporter cells. Expression of the reporter gene (eGFP) was then measured via flow cytometry. The mean and standard deviation of the gMFI of the viable population of reporter cells (mCD45.2+ stimulator cells were excluded) were determined. Each experiment was performed in duplicate.

[3] = Stability of peptides in cell culture medium (RPMI1640 with 10% FCS), RP-HPLC; format: in vitro ADME; conditions: 37 °C, at least triplicate
Excerpt: A low stability in solution, which could be connected with many different processes such as aggregation, conformation changes, and chemical degradation, including deamidation and isomerization, oxidation, hydrolysis, and racemization, is a major concern for the therapeutic application of peptides. For the presented study, the stability of the peptides in PBS buffer and medium (solutions used in tests described above) was studied and determined using RP-HPLC. The analysis was done by comparing the area under the peaks in a control sample (peptide dissolved in water, time = 0) and a sample after incubation in PBS or medium.
200 µL of medium (RPMI1640 with 10% FCS)/human plasma was added to 50 µL of each peptide (1 mg/mL). The samples were incubated for different times (0, 2, 3, 6, and 24 h) at 37 °C. They were then precipitated by the addition 1 mL of absolute ethanol, incubated on ice for 15 min and centrifuged at 18,000 rpm for 20 min at 4 °C. The supernatants were collected and dried under vacuum. The samples were then resuspended in 120 µL of 0.1% TFA and analyzed by RP-HPLC under the same conditions as described for the determination of the stability of the peptides in PBS. All stability tests were performed at least in triplicate. Blood was obtained from donor volunteers and centrifuged in lithium/heparin tubes. EDTA was used as an anticoagulant.

[4] = target: T4, HVEM protein (Homo sapiens, UniProt Q92956); assay: Affinity test: peptide on microcolumn with immobilized HVEM, fractions analysed by mass spectrometry; format: binding; conditions: for Interaction with HVEM protein in affinity test: microcolumn with immobilized HVEM, presence in elution fraction by mass spectrometry
T4 construct: His; purchased ACROBiosystems #HVM-H52E9
Protocol: Affinity tests were performed to confirm the interaction of the designed peptides with HVEM protein. The peptide was added to a microcolumn with immobilized HVEM protein, and binding was checked using mass spectrometry, according to a procedure described earlier.
The affinity tests were performed according to the procedure described in our previous paper. The MS spectrums were registered using a MALDI-TOF/TOF autoflex maX (Bruker, Billerica, MA, USA) mass spectrometer.

[5] = target: T3, recombinant human HVEM with His tag; assay: affinity purification with mass spectrometry; HVEM protein immobilised in a microcolumn; peptide added; supernatant, last wash and elution fractions analysed by MALDI-TOF/TOF MS; procedure of ref. 33; conditions: both partners purified

Row | Molecule | Inhibitory properties for BTLA/HVEM complex formation (ELISA), in words [1] | Capacity to interfere with BTLA/HVEM complex (reduction of NFκB-eGFP activation), in words [2] | metabolised at 24 h, 0.2 mg/mL ([3]; cell culture medium (RPMI1640 with 10% FCS), 200 µL + 50 µL peptide 1 mg/mL, 24 h, ethanol precipitation, read-out: Degradation in medium after 24 h) [%] | Elution [M+H]+ (signal in elution fraction = binding to immobilized HVEM) ([4]; MALDI-TOF MS of elution fraction, binding confirmed if m/z signal present in elution and none in last wash, '-' = no signal) | Interaction with HVEM protein in affinity test [4] | Stability in medium (and PBS), in words ([3]; up to 24 h) | binding result [5]
1 | CSCC[C@@H]1NC(=O)[C@H](CC(=O)O)NC(=O)[C@H](CC(C)C)NC(=O)[C@H](CC(C)C)NC(=O)[C@H](CC(=O)O)NC(=O)[C@H](C(C)C)NC(=O)[C@H](C)NC(=O)[C@H](C(C)C)NC(=O)CNC(=O)[C@H](CC(=O)O)NC(=O)[C@@H](NC(=O)CNC(=O)[C@H](CCCCN)NC(=O)[C@H](CO)NC(=O)[C@H](C)NC(=O)[C@H](CCCNC(=N)N)NC(=O)[C@H](CC(C)C)NC(=O)[C@@H]2CCCN2C(=O)[C@H](CCCNC(=N)N)NC(=O)[C@H](CC(=O)O)NC(C)=O)CSSC[C@@H](C(=O)N[C@@H](CC(C)C)C(=O)N[C@H](C(=O)N[C@@H](CC(C)C)C(=O)N[C@@H](CC(=O)O)C(=O)N[C@@H](Cc2ccccc2)C(=O)N[C@@H](C)C(=O)N[C@@H](CCCNC(=N)N)C(N)=O)C(C)C)NC(=O)[C@@H]2CCCN2C(=O)[C@H](CC(N)=O)NC(=O)[C@H](CCCCN)NC(=O)[C@H](CCC(N)=O)NC(=O)[C@H](CCCNC(=N)N)NC(=O)[C@@H]2CCCN2C(=O)[C@H](Cc2ccc(O)cc2)NC(=O)[C@@H]2CCCN2C1=O [gD(1-36)(K10C-T29C)^SCR, reference compound] (Ac-DRPLRASKGCDGVAVDLLDMPYPRQKNPCLVLDFAR-NH2; disulfide 10-29) | no effect | weak blocking effect |  |  |  |  | 
2 | CSCC[C@H](NC(=O)[C@H](CCCCN)NC(=O)[C@H](CC(C)C)NC(=O)[C@H](CO)NC(=O)[C@H](C)NC(=O)[C@H](CC(=O)O)NC(=O)[C@@H](NC(=O)[C@H](CC(C)C)NC(=O)[C@H](C)NC(=O)[C@H](Cc1ccc(O)cc1)NC(=O)[C@H](CCCCN)NC(C)=O)C(C)C)C(=O)N[C@@H](C)C(=O)N[C@@H](CC(=O)O)C(=O)N1CCC[C@H]1C(=O)N[C@@H](CC(N)=O)C(=O)N[C@@H](CCCNC(=N)N)C(=O)N[C@@H](Cc1ccccc1)C(=O)N[C@@H](CCCNC(=N)N)C(=O)NCC(=O)N[C@@H](CCCCN)C(=O)N[C@@H](CC(=O)O)C(=O)N[C@@H](CC(C)C)C(=O)N1CCC[C@H]1C(=O)N[C@H](C(=O)N[C@@H](CC(C)C)C(=O)N[C@@H](CC(=O)O)C(=O)N[C@@H](CCC(N)=O)C(=O)N[C@@H](CC(C)C)C(=O)N[C@H](C(=O)N[C@@H](CC(=O)O)C(=O)N1CCC[C@H]1C(=O)N1CCC[C@H]1C(=O)NCC(=O)N[C@H](C(=O)N[C@@H](CCCNC(=N)N)C(=O)N[C@@H](CCCNC(=N)N)C(N)=O)C(C)C)[C@@H](C)O)C(C)C [gD(1-36)] | did not prevent protein interaction | weak blocking effect | ~50 | 4094.88 | binds to HVEM |  | 
3 | Ac-ASLKMADPN-NH2 [gD(7-15)] | do not inhibit BTLA/HVEM complex formation | no effect |  |  | do not interact with HVEM protein | almost completely degraded | 
4 | Ac-DQLTDPP-NH2 [gD(26-32)] | do not inhibit BTLA/HVEM complex formation | weak blocking effect |  |  | do not interact with HVEM protein |  | 
5 | Ac-KYALVDASLKMADPNRFRGKDLPVLDQLTDPPGVRR-NH2 (source: synthetic peptide) [gD(1-36)] |  |  |  |  |  |  | binds

Source: paper PMC7700651 (International Journal of Molecular Sciences, 2020)
